# In patent publication US11591369B2, “Alpha(v)beta(6) integrin-binding peptides and methods of use thereof” (priority 2018, dated 2023):
# Where “and” joins values, the source holds several entries; their conditions need not be identical. Equal entries are not always repeated. Where two headings read alike, the source gives them in different places. Primed or numbered codes have the meaning given here. Where no end group is shown, it is not given here. [ ]: non-standard residue; d: D form. The star is where a group is joined. (18F)FB = [18F] fluorobenzoyl group, O=C(c1ccc([18F])cc1)*; (18F)FB″ = [18F]fluorobenzoyl, O=C(c1ccc([18F])cc1)*; PEG12′ = polyethylene glycol, 12 units; PEG28″ = polyethylene glycol, 28 units; PEG2′ = polyethylene glycol, 2 units; PEG4′ = polyethylene glycol, 4 units; PEG8′ = polyethylene glycol, 8 units; PEG28′ = polyethylene glycol-28; Amb = aminomethylbenzoyl
# Legend:
# [1] = 37° C., 1 hour, radio-HPLC
# DX3puroβ6 (αvβ6+) cells = experiment: [18F]-radiolabeled peptide cell binding and internalization, DX3puroβ6 (αvβ6+) cells; assay type: cell-based, human; design: fold increase in binding to DX3puroβ6 (αvβ6+) cells / fold lower binding to DX3puroβ6 (αvβ6+) cells: reference not given here; details: for percent internalized relative to the amount bound to DX3puroβ6 (αvβ6+) cells / binding to DX3puroβ6 (αvβ6+) cells: 1 hour; for binding to DX3puroβ6 (αvβ6+) cells: % of total activity, 37° C.
Substance,intact peptide in mouse serum [1],percent internalized relative to the amount bound to DX3puroβ6 (αvβ6+) cells (DX3puroβ6 (αvβ6+) cells) [%],binding to DX3puroβ6 (αvβ6+) cells (DX3puroβ6 (αvβ6+) cells),DX3puroβ6 (αvβ6+)/DX3puro (αvβ6−) selectivity ratio (DX3puroβ6 (αvβ6+) cells),fold loss in selectivity for DX3puroβ6 (αvβ6+) cells (DX3puroβ6 (αvβ6+) cells) [fold],fold decline in binding to DX3puroβ6 (αvβ6+) cells (DX3puroβ6 (αvβ6+) cells; compared to the parent T1) [fold],intact peptide in mouse serum ([1]; 60 min),fold lower binding to DX3puroβ6 (αvβ6+) cells (DX3puroβ6 (αvβ6+) cells) [fold],fold increase in binding to DX3puroβ6 (αvβ6+) cells (DX3puroβ6 (αvβ6+) cells) [fold]
VGDLTYLKK([^18F]FB) (VGDLTYLKK((18F)FB″)) [[^18F]P1],25% and < 25%,3.7±0.6,12.8±1.9%,–,–,–,–,–,–
VGDLTYLKK([^18F]FB)KVART (VGDLTYLKK((18F)FB″)KVART) [[^18F]P1K-a],> 99%,–,6.2±1.3%,–,–,–,–,–,–
[^18F]FB-Amb-VGDLTYLKQKVART-PEG28 ({(18F)FB″-Amb}-VGDLTYLKQKVART[PEG28′]) [N-[^18F]T1-f],< 50%,25.2±2.4,6.8±0.2%,3.2±0.4 :1,13,3,–,–,–
[^18F]FB-PEG2-VGDLTYLKQKVART-PEG28 ({(18F)FB″-PEG2′}-VGDLTYLKQKVART[PEG28″]) [N-[^18F]T1-a],65%,31.1±7.2,–,–,–,–,–,–,–
[^18F]FB-PEG4-VGDLTYLKQKVART-PEG28 ({(18F)FB″-PEG4′}-VGDLTYLKQKVART[PEG28″]) [N-[^18F]T1-b],–,33.9±7.9,–,–,–,–,72% and 75%,–,–
[^18F]FB-PEG8-VGDLTYLKQKVART-PEG28 ({(18F)FB″-PEG8′}-VGDLTYLKQKVART[PEG28″]) [N-[^18F]T1-c],91%,36.9±3,–,–,–,–,–,–,–
[^18F]FB-PEG12-VGDLTYLKQKVART-PEG28 ({(18F)FB″-PEG12′}-VGDLTYLKQKVART[PEG28″]) [N-[^18F]T1-d],82%,32±13,–,–,–,–,–,–,–
[^18F]FB-PEG28Amb-VGDLTYLKQKVART-PEG28 ({(18F)FB-PEG28′-Amb}-VGDLTYLKQKVART[PEG28′]) [N-[^18F]T1-g],90%,43.1±4.4,3±0.2%,5.7±0.06 :1 and 5.7±0.05 :1,7,–,–,2,–
[^18F]FB-RGDLADLRQKVART ({(18F)FB″}-RGDLADLRQKVART) [N-[^18F]P3Q],16%,12.4±3.6,20±0.4% and 20±0.2% and 20%,–,–,–,–,–,–
[^18F]FB-RGDLTYLKQKVART-PEG28 ({(18F)FB″}-RGDLTYLKQKVART[PEG28′]) [N-[^18F]T1-V1R],54%,11.1±2.6,34.2±0.2%,11.1±0.5 :1,–,–,–,–,6
[^18F]FB-VGDLTYLKQKVART-PEG28 ({(18F)FB″}-VGDLTYLKQKVART[PEG28′]) [N-[^18F]T1],61%,–,18.1±0.8%,41.7±5.3 :1,–,–,–,–,3
